Measured values as given in the METLIN SMRT retention time set (Domingo-Almenara et al. 2019).

Experiment: gradient 5% acetonitrile 3 min, to 50% in 2 min, to 85% in 15 min, held 3 min, 100 µL/min
Conditions: column: Zorbax Extend-C18 2.1 x 50 mm; eluents: water / acetonitrile, 0.1% formic acid
In short: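 A Zorbax Extend-C18 column (2.1 × 50 mm, 1.8 μm) run at 100 μL/min with water and acetonitrile, both containing 0.1% formic acid, separated mixtures of ~100 pure standards. The HPLC was coupled to a quadrupole time-of-flight mass spectrometer operated in positive and negative ionization mode, with dead and dwell volumes of 40 μL and 900 μL. Each retention time was taken from a computationally picked adduct peak that was then manually inspected.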

| RP-LC retention time [s] | Compound |
| --- | --- |
| 704 | CCOc1ccccc1NC(=O)Cn1c(=O)n(CC(N)=O)c(=O)c2oc3ccccc3c21 |
| 764 | COc1ccc(NC(=O)N2CCN(c3ccc(=O)n(-c4ccc(C)c(C)c4)n3)CC2)cc1OC |
| 846 | Cc1ccc(F)c(NC(=O)c2nc3nc(C)cc(C(F)F)n3n2)c1 |
| 730 | Cn1c(=O)c2nc(S(=O)(=O)CCC(=O)Nc3cc(F)ccc3F)n(C)c2n(C)c1=O |
| 757 | O=C(Nc1ccc(N2CCOCC2)cc1)c1cc2ccccc2o1 |
| 1010 | CCOC(=O)c1nc(N2CCN(c3ccccc3F)CC2)c2c(C)noc2n1 |
| 1430 | Cn1nccc1C(=O)Nc1ccsc1-c1nc(-c2ccc(Cl)cc2)no1 |
| 1100 | O=C(NC1(c2nc(-c3ccccc3)no2)CCCCC1)c1ccccc1F |
| 616 | CN(C)c1ccc(-c2nc3cnccn3c2Nc2ccc(C(=O)O)cc2)cc1 |
| 765 | CCn1c(SC)nnc1-c1nn(C)c2c1CN(C(=O)c1c(F)cccc1F)CC2 |
| 726 | COc1ccccc1NC(=O)C1CC(=O)N(c2ccc3oc(C)nc3c2)C1 (stereo not drawn) |
| 1060 | CS(=O)(=O)N1CCC(C(=O)Nc2cccc(C(F)(F)F)c2)Oc2ccc(Cl)cc21 (stereo not drawn) |
| 714 | Cc1cccc(NC(=O)Cn2ncc3c(c2=O)N(C2CC2)C(=O)CS3)c1C |
| 674 | CCC(CC)C(=O)Nc1c(-c2ccc(F)cc2)nc2cc(C)ccn12 |
| 767 | Cc1noc2nc(CCC(=O)NCc3ccccc3F)nc(N3CCCC3)c12 |
| 758 | COc1cccc(N2CCN(S(=O)(=O)c3cc4[nH]c(=O)[nH]c4cc3C)CC2)c1 |
| 928 | CCOC(=O)c1c(S(=O)(=O)N2CCC(C(=O)Nc3ccc(C)cc3C)CC2)c(C)n(CC)c1C |
| 980 | Cn1c(=O)c2cc(C(=O)Nc3cccc(Cl)c3)cnc2n(-c2ccccc2)c1=O |
| 574 | CCOC(=O)N1CCN(C(=O)CSc2nc(=O)[nH]c3c2CCC3)CC1 |
| 1200 | CCCSCCCNC(=O)C1CCCN(c2nc3ccccc3n(Cc3ccccc3)c2=O)C1 (stereo not drawn) |
| 748 | C[C@@H]1CN(CC(=O)Nc2ccc3c(c2)Cc2cccc(-c4cc(=O)cc(N5CCOCC5)o4)c2S3)C[C@H](C)O1 |
| 632 | CC(C)(C)NC(=O)CCc1c(-c2ccccc2)nc2ccccn12 |

| RP-LC retention time [s] | Compound |
| --- | --- |
| 792 | CON(C)C(=O)N1N=C(c2cc(F)ccc2F)S[C@@]1(CCCN)c1ccccc1 |
| 1250 | COc1ccc2c(CCNc3nc(-c4ccc(C5CCCCC5)cc4)cs3)c[nH]c2c1 |
| 745 | CCS(=O)(=O)N1CCC2(CC1)CN(Cc1ccc(OC)cc1)C2=O |
| 1360 | COc1ccccc1-c1csc(NC(=O)c2sc(COc3ccc(Cl)c(C)c3)nc2C)n1 |
| 607 | O=C(c1ccco1)N1CCN(C(=O)C2CCN(c3ccc(N4CCCCC4)nn3)CC2)CC1 |
| 912 | Cc1ccc(-n2c(=O)c3c(cc(C)n3C)n(CC(=O)Nc3c(C)cccc3C)c2=O)cc1 |
| 1220 | O=C(Nc1ccc(Cl)c(Cl)c1)Nc1nc(-c2ccccc2)cs1 |
| 636 | Cc1cc(C)c2oc(C(=O)NCC(c3ccccc3)N(C)C)cc(=O)c2c1 (stereo not drawn) |
| 689 | Cc1noc(C)c1CC(=O)NCc1cc(-c2ccc3c(c2)OCO3)on1 |
| 871 | Cc1nc2ccccc2c(=O)n1Cc1noc(-c2ccccc2Br)n1 |
| 924 | Cc1ccc(CNC(=O)c2cc(C)n3nc(-c4ccccn4)cc3n2)cc1 |
| 942 | CCc1ccc(S(=O)(=O)Nc2cccc(-c3nc4cccnc4s3)c2C)s1 |
| 1060 | O=C(Nc1ccc2ccccc2c1)c1cccc(F)c1 |
| 765 | Cc1cc(=O)n(CC(=O)Nc2ccccc2)c(N2CCc3ccccc3C2)n1 |
| 622 | CC(Oc1c(Cl)cccc1Cl)C1=NCCN1 (stereo not drawn) |
| 817 | CCc1cccc(C)c1Nc1c(-c2ccc(N3CCOCC3)cc2)nc2cnccn12 |
| 915 | Cc1ccc(-c2cc(C(=O)NC3CC3)n(C)c2)cc1 |
| 1020 | COc1cc(-c2noc(Cn3ncn4nc(-c5ccc(F)cc5)cc4c3=O)n2)cc(OC)c1OC |
| 678 | Cc1cccc(OCCCn2c(CO)nc3ccccc32)c1 |
| 712 | O=C(CCC1CCN(c2cc(NC3CC3)ncn2)CC1)NCc1ccc(F)c(Cl)c1 |
| 601 | COc1cccc(-c2nc(Cn3ccnc3)no2)c1 |
| 662 | COc1ccc(SCCc2ccncc2)cc1 |

| RP-LC retention time [s] | Compound |
| --- | --- |
| 780 | O=C(CSc1nnc(-c2cccnc2)o1)c1ccc(OC(F)F)cc1 |
| 697 | O=C(NC1CCCC1)C1CCN(C(=O)C2Sc3ccccc3NC2=O)CC1 (stereo not drawn) |
| 664 | CCn1cc(CC(=O)Nc2ccc(OC)c(OC)c2)c2cccnc21 |
| 687 | O=C(Nc1ccc2nc3n(c(=O)c2c1)CCCCC3)C(=O)NC1CC1 |
| 1040 | Cc1ccc(CNC(=O)Cn2nc(C)c3nn(-c4ccc(Cl)cc4)c(-n4cccc4)c3c2=O)o1 |
| 966 | C=CCNC(=O)c1nnn(Cc2ccc(C)cc2)c1-n1cccc1 |
| 783 | Cc1ccc2c(=O)c(C(=O)N3CCC(C)CC3)cn(CC(=O)Nc3ccccc3)c2n1 |
| 616 | OCCOCCNCc1ccc(-c2ccccc2F)o1 |
| 1120 | COc1ccc2c(c1)c1ccc3c(c1n2C)C(=O)C=CC3=O |
| 970 | O=C(NC1CCCCCC1)C1=C2CCCN2c2ccc(F)cc2S1(=O)=O |
| 1260 | CCOC(=O)c1cc(C2CC2)nc2c1c(=O)n(Cc1ccc(Cl)cc1)c(=O)n2C |
| 774 | O=C(NC1CCN(c2cc(-c3ccc(F)cc3)[nH]n2)C1)c1cccc(Cl)c1 (stereo not drawn) |
| 1050 | CC(C)Cn1c(=O)c(C(=O)NCc2ccc(C(F)(F)F)cc2)nc2cccnc21 |
| 1080 | CC(C)c1ccc(S(=O)(=O)N2CCC(C(=O)NCCc3csc(-c4ccccc4)n3)CC2)cc1 |
| 856 | Cc1ccc(CC(=O)N2CCC(COc3ccc(C(=O)NC4CC4)cc3)CC2)cc1 |
| 626 | COCCC1CCN(C(=O)CC2CCN(C(C)=O)CC2)CC1 |
| 610 | Cc1nn2c(CNC(=O)c3ccccc3Br)c(C)nc2s1 |
| 826 | CCOC(=O)c1[nH]c(C)c(CCC(=O)N2CCC(C(=O)NCc3ccc(C)cc3)CC2)c1C |
| 728 | Cc1ccc(CNC(=O)c2ccc(CN3CCN(C4CCCC4)C(=O)C3=O)cc2)o1 |
| 763 | O=C1COc2ccc(S(=O)(=O)N3CCC(C(=O)Nc4ccc(F)cc4F)CC3)cc2N1 |
| 805 | O=C(NCCc1c[nH]c2ccc(Cl)cc12)c1ccc(F)cc1-n1cnnn1 |
| 774 | CC(=O)N1CCCSc2ccc(S(=O)(=O)N3CCCC3)cc21 |

| RP-LC retention time [s] | Compound |
| --- | --- |
| 713 | COC(=O)c1cnc2nc(C)ccc2c1Nc1ccc(Cl)c(F)c1 |
| 575 | Cc1nnc2c(NC(=O)c3ccncc3)cccn12 |
| 902 | C=C1C(=O)C23CC[C@@H]4C(C)(C(=O)OC)CCCC4(C)[C@@H]2CCC1(O)C3 (stereo partly drawn) |
| 1080 | Cc1ccc(-c2cc3c(=O)n(CC(O)c4ccc(C)c(C)c4)ccn3n2)c(C)c1 (stereo not drawn) |
| 756 | COc1ccc(S(=O)(=O)N2CCN(c3cc(C)nc(NC4CCCCC4)n3)CC2)cc1OC |
| 1080 | CCn1c(=O)c(N2CCCC(C(=O)NCc3cccc(Br)c3)C2)nc2ccccc21 (stereo not drawn) |
| 576 | Cc1ccc2c(Nc3ccc(C#N)cc3)c(C(=O)N3CCCC3)cnc2n1 |
| 585 | Cc1ccsc1CN1CCCC1c1nnc2n1CCN(C(=O)C(C)C)CC2 (stereo not drawn) |
| 661 | CCOc1ccc(S(=O)(=O)Nc2ccc(-c3cn4ccc(C)nc4n3)cc2)cc1 |
| 937 | Cn1nc(-c2nc(Cc3ccccc3)no2)c2c1CCN(C(=O)C(C)(C)C)C2 |
| 958 | O=C(NCc1ccccc1F)C1CCCN(c2nc3ccsc3c(=O)n2Cc2ccc(F)cc2)C1 (stereo not drawn) |
| 735 | CCCCNC(=O)C1CCCN(c2ccc(-c3ccc(C)c(C)c3)nn2)C1 (stereo not drawn) |
| 934 | CCOc1ccc(NS(=O)(=O)c2ccc(-c3c(C)noc3C)cc2)cc1 |
| 819 | CC(C)CC(=O)Nc1ccc(-n2cnc(C(=O)N3CCN(c4ccccc4)CC3)c2)nc1 |
| 674 | CC(C)CN1C(=O)c2cccn2CC1C(=O)N1CCCC1 (stereo not drawn) |
| 841 | CC1(C)CC(=O)c2c(nc(N3CCN(c4ccccn4)CC3)nc2Nc2ccccc2)C1 |
| 784 | COc1cc(NC(=O)CN2C(=O)C(C)(C)c3ccccc32)cc(OC)c1OC |
| 663 | CCc1ccc(-c2nc(-c3ccc4c(c3)nnn4CCN3CCOCC3)no2)cc1 |
| 671 | CC(C)NC(=O)c1nc(-c2ccnc(N3CCCCC3)c2)no1 |
| 806 | CN1C(=O)c2cc(C(=O)NCCc3c[nH]c4ccccc34)nn2CC1(C)C(=O)NC1CCCCC1 (stereo not drawn) |
| 594 | CCN1CCN(c2cc(C)c3cc(NC(=O)COc4ccc(F)cc4)ccc3n2)CC1 |
| 794 | Cc1ccc(NC(=O)C2CCN(S(=O)(=O)c3ccc4c(c3)sc(=O)n4C(C)C)CC2)nc1 |
